Values joined by “and” are separate entries in the source; they are usually repeats but may differ in a detail not shown here. Equal entries are not always repeated.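 Grown in 96-well plates, cells were treated for 48 hours with each compound at five concentrations. Insufficient inhibition: endpoint recorded as highest concentration tested. GI50: concentration for 50% inhibition of growth. Definition used: TGI = concentration required for complete inhibition of growth.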

The record followed here is PubChem BioAssay (NCI).

Among the test systems are DMS 273 small cell lung; KM20L2 colon; HOP-18 NSCLC; LXFL 529 NSCLC; RXF-631 renal; M19-MEL melanoma; DLD-1 colon; SNB-78 CNS; P388 leukemia; XF 498 CNS; P388/ADR leukemia; SN12K1 renal.
What all share (experiment): NCI tumour cell line growth inhibition, 48 h

Consider `[Cl][Sn]([c]1ccccc1)([c]1ccccc1)[c]1ccccc1`, for which the GI50 with DMS 273 small cell lung is 28.3 nM; in the assay with KM20L2 colon, 34 nM and 18.6 nM; with HOP-18 NSCLC it was 29.3 nM; with LXFL 529 NSCLC it was 35.3 nM and 22.7 nM; in the assay with RXF-631 renal it was 47.2 nM; in the assay on M19-MEL melanoma, 30.6 nM and 18.1 nM. In addition, the GI50 is 37.8 nM and < 10 nM in the assay with DLD-1 colon; 84.7 nM and 21.9 nM with SNB-78 CNS. Also, the TGI is 76.1 nM in the assay on DMS 273 small cell lung; 110 nM and 45.4 nM with KM20L2 colon; 113 nM with HOP-18 NSCLC; 131 nM and 79.8 nM with LXFL 529 NSCLC; 149 nM in the assay on RXF-631 renal; 96.9 nM and 43 nM in the assay on M19-MEL melanoma. The TGI in the assay on DLD-1 colon was 140 nM and 28.2 nM; in the assay on SNB-78 CNS, 439 nM and 85.1 nM.
For the compound `COc1c(O)c(C=O)c2c(O)c(-c3c(C)cc4c(C(C)C)c(OC)c(O)c(C=O)c4c3O)c(C)cc2c1C(C)C`, the TGI with DMS 273 small cell lung was 14900 nM; in the assay with KM20L2 colon, 19900 nM; in the assay on LXFL 529 NSCLC, 12000 nM; in the assay with M19-MEL melanoma, 12400 nM; in the assay on DLD-1 colon it was 15800 nM; in the assay with SNB-78 CNS, 52300 nM.
Turning to `C/C=C/c1cc(=O)c([C@@H]2OC(=O)c3cc(OC)cc(OC)c32)co1`, the TGI in the assay with KM20L2 colon is > 100000 nM; in the assay on LXFL 529 NSCLC it was 91600 nM; in the assay on M19-MEL melanoma, > 100000 nM.
On to `COc1cc2ccc(=O)oc2cc1O`, for which the TGI with DMS 273 small cell lung was 99600 nM; in the assay on P388 leukemia, 233000 nM; in the assay on XF 498 CNS, 337000 nM; in the assay on KM20L2 colon it was 614000 nM; in the assay on P388/ADR leukemia, 103000 nM; with SN12K1 renal it was 236000 nM. Also, the TGI in the assay on HOP-18 NSCLC is 521000 nM; with M19-MEL melanoma, 328000 nM; with DLD-1 colon, 552000 nM; with SNB-78 CNS it was > 625000 nM.
Regarding `NC(=O)c1cccc([N+](=O)[O-])c1`, the TGI with DMS 273 small cell lung, in the assay on XF 498 CNS, in the assay on KM20L2 colon, in the assay with LXFL 529 NSCLC, with M19-MEL melanoma and with DLD-1 colon was > 100000 nM in each case. The TGI with SNB-78 CNS was > 100000 nM.
